Numbering of substitutions follows the chain as printed. Values belong to the compound of their own block, whether it stands above or below them.
Key:
Sts-2PGM(A446S/S552A) = target: T1, Sts-2PGM(A446S/S552A) (Mus musculus, UniProt Q3V3E1, A446S/S552A); experiment: pNPP hydrolysis by Sts-2PGM; format: biochemical; conditions: substrate pNPP, pH 7.5, relative to Sts-2PGM
T1 sequence (Q3V3E1 354-624 A446S/S552A): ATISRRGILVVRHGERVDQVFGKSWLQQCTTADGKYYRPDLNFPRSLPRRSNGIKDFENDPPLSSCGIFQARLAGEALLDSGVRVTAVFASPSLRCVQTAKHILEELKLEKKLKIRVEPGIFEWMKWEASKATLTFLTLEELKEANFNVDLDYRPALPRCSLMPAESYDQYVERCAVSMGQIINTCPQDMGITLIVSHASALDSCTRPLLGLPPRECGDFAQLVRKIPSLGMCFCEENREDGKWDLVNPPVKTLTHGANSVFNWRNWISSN

Sts-2PGM [1] = target: T2, Sts-2PGM (Mus musculus, UniProt Q3V3E1); experiment: pNPP hydrolysis by wild-type Sts-2PGM; format: biochemical; conditions: substrate pNPP, Sts-2PGM wild-type
T2 sequence (Q3V3E1 354-624): T1 sequence (Q3V3E1 354-624 A446S/S552A) with S93A, A199S

Sts-2PGM(E481V) = target: T3, Sts-2PGM(E481V) (Mus musculus, UniProt Q3V3E1, E481V); experiment: pNPP hydrolysis by Sts-2PGM; format: biochemical; conditions: substrate pNPP
T3 sequence (Q3V3E1 354-624 E481V): T1 sequence (Q3V3E1 354-624 A446S/S552A) with S93A, E128V, A199S

Sts-2PGM(S552A/S582Y) = target: T4, Sts-2PGM(S552A/S582Y) (Mus musculus, UniProt Q3V3E1, S552A/S582Y); experiment: pNPP hydrolysis by Sts-2PGM; format: biochemical; conditions: substrate pNPP
T4 sequence (Q3V3E1 354-624 S552A/S582Y): T1 sequence (Q3V3E1 354-624 A446S/S552A) with S93A, S229Y

Sts-1PGM = Sts-1PGM (Mus musculus, UniProt Q8BGG7); experiment: pNPP hydrolysis by Sts-1PGM; format: biochemical; conditions: substrate pNPP
Chain of Sts-1PGM (Q8BGG7 369-638 limits assumed): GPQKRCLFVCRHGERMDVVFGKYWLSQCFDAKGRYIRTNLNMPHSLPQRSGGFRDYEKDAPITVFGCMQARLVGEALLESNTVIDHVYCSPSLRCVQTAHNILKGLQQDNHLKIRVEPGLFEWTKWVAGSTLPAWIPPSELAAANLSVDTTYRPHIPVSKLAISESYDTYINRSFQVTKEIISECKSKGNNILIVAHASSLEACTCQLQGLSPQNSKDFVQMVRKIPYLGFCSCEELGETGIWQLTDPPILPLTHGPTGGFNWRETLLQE

Sts-2PGM [2] = target: T2, Sts-2PGM; experiment: biochemical

- relative activity (Sts-2PGM(A446S/S552A)): 28%
- kcat (Sts-2PGM [1]; pH 5.0, 37 °C): 0.3 s⁻¹
- relative activity (Sts-2PGM [1]; pH 5.0, relative to Sts-2PGM): 13.0%
- relative activity (Sts-2PGM [1]; pH 7.5 (reference)): 1%
- relative activity (Sts-2PGM(E481V); pH 5.0, relative to Sts-2PGM): 207%
- relative activity (Sts-2PGM(E481V); pH 7.5, relative to Sts-2PGM): 10%
- Km (Sts-2PGM(S552A/S582Y); pH 5.0, 37 °C): 600 µM
- kcat (Sts-2PGM(S552A/S582Y); pH 5.0, 37 °C): 2.9 s⁻¹
- relative activity (Sts-2PGM(S552A/S582Y); pH 5.0, relative to Sts-2PGM): 312%
- kcat (Sts-1PGM; pH 5.0, 37 °C): 63.4 s⁻¹
- relative activity (Sts-1PGM; pH 5.0, relative to Sts-2PGM): 210000%
- kcat (Sts-1PGM; pH 7.5, 37 °C): 70 s⁻¹
- relative activity (Sts-1PGM; pH 7.5, relative to Sts-2PGM): 9400%
SMILES: O=[N+]([O-])c1ccc(OP(=O)(O)O)cc1 [pNPP, p-nitrophenyl phosphate]

- IC50 (Sts-2PGM [2]): 52 ± 6.2 mM
- Ki (Sts-2PGM [2]): 35.1 ± 4.1 mM
SMILES: O=P(O)(O)O [phosphate]

- IC50 (Sts-2PGM [2]): 0.82 ± 0.1 mM
- Ki (Sts-2PGM [2]): 0.54 ± 0.07 mM
SMILES: [O]=[W](=[O])([OH])[OH] [tungstate, sodium tungstate]

SMILES: [O]=[V]([OH])([OH])[OH] [vanadate, sodium vanadate]
- IC50 (Sts-2PGM [2]): 5.3 ± 3.3 mM
- Ki (Sts-2PGM [2]): 3.55 ± 2.3 mM

Source: article PMC2880635 (Biochemistry, 2009)
